What was measured:
Format in all cases: cell-based
[1] = target: T1, PfCRT^Dd2 (Plasmodium falciparum, UniProt Q9N623, A220S/I356T/K76T/M74I/N326S/N75E/Q271E/R371I); experiment: cell-based; settings: for PfCRT-mediated [3H]CQ transport, trans-stimulation (% PfCRTDd2 control): PfCRTDd2 oocytes, normalised to oocyte type control; for [3H]CQ transport (% PfCRTDd2 control), trans-stimulation, PfCRTDd2: PfCRT-mediated component (background subtracted), mean ± SEM, SEM
Description: (§1) Unless specified otherwise, the transport assays were conducted over 1.5 h at 27.5 °C and the reaction buffer was ND96 (96 mM NaCl, 2 mM KCl, 1 mM MgCl2, 1.8 mM CaCl2, 10 mM MES and 10 mM Tris-base) at pH 5.5.
(§2) The intracellular concentrations were calculated using previous estimates of the volume of stage V–VI oocytes (~400 nL[60]). […] The oocytes were injected with VF-6 suspended in 25 nL ND96 buffer adjusted to pH 5.0, 5.5, 6.0 or 7.0, which corresponded to the injection of 2.5–250 fmol of H^+. The Na^+-dependence of the trans-stimulatory effect of VF-6 was assessed by injecting the oocytes with VF-6 suspended in ND96 buffer (pH 5.5) or a Na^+-free version of this buffer (the Na^+ was replaced with choline).
(§3) At least four independent experiments were performed (on different days and using oocytes from different frogs), and within each experiment measurements were made from ten oocytes per treatment.

[2] = target: PfCRT^3D7 (Plasmodium falciparum, UniProt Q8IBZ9); experiment: cell-based; settings: PfCRT3D7 oocytes, normalised to oocyte type control
Sequence of PfCRT^3D7 (Q8IBZ9 59-398): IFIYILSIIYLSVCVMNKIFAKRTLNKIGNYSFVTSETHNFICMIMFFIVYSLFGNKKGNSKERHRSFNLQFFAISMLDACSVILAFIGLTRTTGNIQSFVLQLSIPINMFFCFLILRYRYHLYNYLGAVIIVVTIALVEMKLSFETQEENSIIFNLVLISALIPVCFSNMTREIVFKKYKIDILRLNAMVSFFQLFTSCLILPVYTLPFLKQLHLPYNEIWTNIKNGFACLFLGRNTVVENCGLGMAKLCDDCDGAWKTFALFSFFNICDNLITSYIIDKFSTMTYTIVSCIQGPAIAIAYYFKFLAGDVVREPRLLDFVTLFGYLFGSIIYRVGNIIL
Description: as §1, §2, §3

[3] = target: T2, PfCRT^Ecu1110 (Plasmodium falciparum, UniProt Q9N623, A220S/I356L/K76T/N326D); experiment: cell-based; settings: for PfCRT-mediated [3H]CQ transport, trans-stimulation (% PfCRTEcu1110 control): PfCRTEcu1110 oocytes, normalised to oocyte type control; for [3H]CQ transport (% PfCRTDd2 control), trans-stimulation, PfCRTEcu1110: PfCRT-mediated component (background subtracted), sheet title says normalised to PfCRTDd2 control, mean ± SEM, SEM
T2 sequence (Q9N623 whole entry A220S/I356L/K76T/N326D): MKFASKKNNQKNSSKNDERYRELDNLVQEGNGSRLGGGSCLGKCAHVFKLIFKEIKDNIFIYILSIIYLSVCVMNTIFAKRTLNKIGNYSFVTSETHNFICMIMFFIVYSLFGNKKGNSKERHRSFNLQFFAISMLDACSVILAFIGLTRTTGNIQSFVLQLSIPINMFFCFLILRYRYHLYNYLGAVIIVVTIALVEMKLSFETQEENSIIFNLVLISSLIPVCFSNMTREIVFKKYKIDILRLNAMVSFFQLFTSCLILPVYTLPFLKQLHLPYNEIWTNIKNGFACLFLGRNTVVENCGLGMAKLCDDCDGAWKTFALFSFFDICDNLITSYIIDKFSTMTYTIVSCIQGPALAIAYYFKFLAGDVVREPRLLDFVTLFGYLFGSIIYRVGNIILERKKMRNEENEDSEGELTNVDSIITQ
Description: as §1, §2, §3

[4] = target: T1, PfCRT^Dd2; experiment: [3H]CQ uptake into Xenopus oocytes, cis-inhibition by unlabelled solute; settings: PfCRTDd2 oocytes, background [3H]CQ accumulation subtracted, normalised to oocyte type control
Excerpt: (§4) The orientation of PfCRT in the parasite’s DV membrane, and also in the oocyte plasma membrane, is such that its N- and C-termini extend into the cytosol. The oocytes were suspended in a reaction buffer adjusted to pH 5.5 to mimic the pH of the DV lumen[1],[2]. In this scenario, the transport of a substrate via PfCRT from the acidic extracellular solution into the oocyte cytosol[15] is analogous to the parasite’s PfCRT-mediated efflux of a substrate from the acidic DV and into the cytosol. Unless specified otherwise, this is the direction in which substrate transport was measured in the oocyte assays.
as §1
(§5) Ten oocytes were washed twice with the relevant ND96 buffer. […] The assay was terminated by removing the reaction buffer and washing the oocytes with ice-cold ND96 buffer. The oocytes were lysed in 10% (w/v) sodium dodecyl sulfate (SDS) and the radioactivity accumulated within each oocyte was measured with a MicroBeta^2 microplate liquid scintillation analyser (PerkinElmer).
as §3

[5] = target: T2, PfCRT^Ecu1110; experiment: as above; settings: for PfCRT-mediated [3H]CQ transport, cis-inhibition (% PfCRTEcu1110 control): PfCRTEcu1110 oocytes, background [3H]CQ accumulation subtracted, normalised to oocyte type control; for [3H]CQ transport (% PfCRTEcu1110 control), cis-inhibition, PfCRTEcu1110: PfCRT-mediated component (background subtracted), sheet title says normalised to PfCRTDd2 control, mean ± SEM, SEM
Excerpt: as §4, §1, §5, §3

[6] = [test solute]i = 5 mM (intracellular)
[7] = [test solute]i = 45 mM (intracellular; 30 mM for some solutes due to solubility)
[8] = [test solute]i = 5 mM (injected)
[9] = [test solute]i = 45 mM (30 mM for some solutes due to solubility)

T1 sequence (Q9N623 whole entry A220S/I356T/K76T/M74I/N326S/N75E/Q271E/R371I): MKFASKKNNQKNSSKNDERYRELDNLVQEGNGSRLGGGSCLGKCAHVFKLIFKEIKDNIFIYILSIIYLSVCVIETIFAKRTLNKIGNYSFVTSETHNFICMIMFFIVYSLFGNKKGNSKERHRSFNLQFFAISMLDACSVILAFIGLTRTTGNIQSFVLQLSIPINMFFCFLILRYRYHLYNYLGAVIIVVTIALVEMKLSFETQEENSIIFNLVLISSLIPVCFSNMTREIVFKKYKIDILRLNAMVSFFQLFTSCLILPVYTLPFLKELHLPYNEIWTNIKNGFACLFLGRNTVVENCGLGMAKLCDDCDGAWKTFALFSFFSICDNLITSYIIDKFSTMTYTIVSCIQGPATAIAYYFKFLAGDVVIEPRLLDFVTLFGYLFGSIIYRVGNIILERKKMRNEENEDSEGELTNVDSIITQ

| Substance | PfCRT-mediated [3H]CQ transport, trans-stimulation (% PfCRTDd2 control) [1, 6] [% PfCRTDd2 control] | PfCRT-mediated [3H]CQ transport, trans-stimulation (% PfCRTDd2 control) [1, 7] [% PfCRTDd2 control] | [3H]CQ transport (% PfCRTDd2 control), trans-stimulation, PfCRTDd2 [1, 8] [% PfCRTDd2 control] | [3H]CQ transport (% PfCRTDd2 control), trans-stimulation, PfCRTDd2 [1, 9] [% PfCRTDd2 control] | PfCRT-mediated [3H]CQ transport, trans-stimulation (% PfCRT3D7 control) [2, 6] [% PfCRT3D7 control] | PfCRT-mediated [3H]CQ transport, trans-stimulation (% PfCRT3D7 control) [2, 7] [% PfCRT3D7 control] | PfCRT-mediated [3H]CQ transport, trans-stimulation (% PfCRTEcu1110 control) [3, 6] [% PfCRTEcu1110 control] | PfCRT-mediated [3H]CQ transport, trans-stimulation (% PfCRTEcu1110 control) [3, 7] [% PfCRTEcu1110 control] | [3H]CQ transport (% PfCRTDd2 control), trans-stimulation, PfCRTEcu1110 [3, 8] [% PfCRTEcu1110 control] | [3H]CQ transport (% PfCRTDd2 control), trans-stimulation, PfCRTEcu1110 [3, 9] [% PfCRTEcu1110 control] | PfCRT-mediated [3H]CQ transport, cis-inhibition (% PfCRTDd2 control) ([4]; [test solute] = 0.5 mM) | PfCRT-mediated [3H]CQ transport, cis-inhibition (% PfCRTDd2 control) ([4]; [test solute] = 1 mM) | PfCRT-mediated [3H]CQ transport, cis-inhibition (% PfCRTDd2 control) ([4]; [test solute] = 2 mM) | PfCRT-mediated [3H]CQ transport, cis-inhibition (% PfCRTEcu1110 control) ([5]; [test solute] = 0.5 mM) | PfCRT-mediated [3H]CQ transport, cis-inhibition (% PfCRTEcu1110 control) ([5]; [test solute] = 1 mM) | PfCRT-mediated [3H]CQ transport, cis-inhibition (% PfCRTEcu1110 control) ([5]; [test solute] = 2 mM) | [3H]CQ transport (% PfCRTEcu1110 control), cis-inhibition, PfCRTEcu1110 ([5]; [test solute] = 0.5 mM) [% PfCRTEcu1110 control] | [3H]CQ transport (% PfCRTEcu1110 control), cis-inhibition, PfCRTEcu1110 ([5]; [test solute] = 1 mM) [% PfCRTEcu1110 control] | [3H]CQ transport (% PfCRTEcu1110 control), cis-inhibition, PfCRTEcu1110 ([5]; [test solute] = 2 mM) [% PfCRTEcu1110 control] |
| --- | --- | --- | --- | --- | --- | --- | --- | --- | --- | --- | --- | --- | --- | --- | --- | --- | --- | --- | --- |
| FPHFDLS [FS-7] | 95 ± 4.2 | 98 ± 4.1 | 95 ± 4.2 | 98 ± 4.1 | 96 ± 4.6 | 99 ± 2.7 | 99 ± 3.6 | 98 ± 4.3 | 30 ± 1.3 | 30 ± 1.4 | 30 ± 3.7 | 19 ± 0.7 | 11 ± 0.7 | 39 ± 2.5 | 31 ± 1.7 | 17 ± 0.8 | 12 ± 0.4 | 10 ± 0.2 | 5.0 ± 0.04 |
| FSDGLA [FA-6] | 102 ± 6.2 | 98 ± 4.2 | 102 ± 6.2 | 98 ± 4.2 | 134 ± 3.2 | 190 ± 4.6 | 98 ± 4.5 | 96 ± 4.7 | 30 ± 1.4 | 29 ± 1.3 | 29 ± 0.1 | 17 ± 0.7 | 10 ± 0.3 | 60 ± 0.7 | 42 ± 2.5 | 32 ± 0.5 | 19 ± 0.1 |  | 10 ± 0.3 |
| GLAHL [GL-5] | 98 ± 4.1 | 98 ± 3.3 | 98 ± 4.1 | 98 ± 3.3 | 97 ± 3.5 | 94 ± 4.6 | 96 ± 4.1 | 99 ± 3.6 | 29 ± 1.4 | 30 ± 1.3 | 62 ± 1.1 | 50 ± 3.5 | 20 ± 1.3 | 68 ± 2.5 | 58 ± 3.5 | 28 ± 2.0 |  | 18 ± 0.1 | 9.0 ± 0.01 |
| GTFAT [GT-5] | 96 ± 3.5 | 96 ± 4.2 | 96 ± 3.5 | 96 ± 4.2 | 96 ± 3.5 | 96 ± 3.4 | 98 ± 4.6 | 98 ± 4.4 | 30 ± 1.6 | 30 ± 1.7 | 62 ± 2.0 | 50 ± 2.2 | 20 ± 1.1 | 51 ± 1.1 | 41 ± 2.5 | 30 ± 0.4 |  | 13 ± 0.3 | 9.0 ± 0.1 |

— article PMC7413254 (Nature Communications, 2020)
